Measurements: PubChem BioAssay (NCI)
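Exposure lasted 48 hours, with cells grown in 96-well plates and compounds tested at five concentrations. Here, GI50 denotes the concentration required for 50% inhibition of growth. At the TGI there is no net growth.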 Where a SMILES comes first, the peptide text is derived from it. [ ]: non-standard residue; d: D form. The star is where a group is joined. ξ: configuration not given here. ξPhe(4-NO2) = NC(Cc1ccc([N+](=O)[O-])cc1)C(=O)O; Boc = CC(C)(C)OC(=O)*

Tests used:
Test in all cases: NCI anticancer screen, dose series, 48 h
SN12C renal = tested on: SN12C renal
UACC-62 melanoma = tested on: UACC-62 melanoma
SF-268 CNS = tested on: SF-268 CNS
HCT-116 colon = tested on: HCT-116 colon
SK-MEL-2 melanoma = tested on: SK-MEL-2 melanoma
OVCAR-4 ovarian = tested on: OVCAR-4 ovarian

SMILES	TGI (SN12C renal) [µM]	TGI (UACC-62 melanoma) [µM]	TGI (SF-268 CNS) [µM]	TGI (HCT-116 colon) [µM]	TGI (SK-MEL-2 melanoma) [µM]	TGI (OVCAR-4 ovarian) [µM]	GI50 (SN12C renal) [µM]
CN(/N=C/c1ccccc1C(=O)O)C1=NCCCCN1	> 100	> 100	> 100	> 100	> 100	> 100	–
COc1ncc(C#CC(=O)c2ccccc2)c(OC)n1	2.78	8.78	26.4	10.1	13.4	12.9	–
CN(C(=O)c1ccc(Cl)cc1)C(=S)N1CCN(c2ccccc2)CC1	> 100	> 100	> 100	–	> 100	> 100	–
C=CC(C)(C)n1cc(C2=C(O)C(=O)C(c3c(CC=C(C)C)[nH]c4ccccc34)=C(O)C2=O)c2ccccc21	3.6	1.18	5.13	5.59	3.41	11.8	–
CCOC(OCC)[C@H](N)[C@@H](O)[C@@H](O)[C@H]1COC(C)(C)O1	> 100	> 100	> 100	> 100	> 100	> 100	–
COc1cc(C2SCC(=O)N2NC(=O)c2ccc(NC(C)=O)cc2OC)ccc1O (stereo unspecified)	79.8	> 100	99	> 100	68.6	> 100	–
Fc1cc2nc3n(c2cc1F)C(c1c(Cl)cccc1Cl)SC3 (stereo unspecified)	29.8	26.4	34.4	25.2	33.6	30.1	–
CCCCSC1=N/C(=C\c2ccc(N(C)C)cc2)C(Cl)=N1	> 100	> 100	> 100	> 100	> 100	> 100	–
COc1ccc2c(c1)OC1c3ccccc3OCC21 (stereo unspecified)	> 100	> 100	> 100	> 100	> 100	> 100	–
O=C1CN(c2ccccc2)C(=O)CN1CCN1CC(=O)N(c2ccccc2)CC1=O	> 100	> 100	> 100	> 100	–	> 100	–
CCNC(=O)CNC(=O)C(Cc1ccc([N+](=O)[O-])cc1)NC(=O)OC(C)(C)C (stereo unspecified) (Boc-[ξPhe(4-NO2)]-Gly-NHEt)	> 100	> 100	> 100	> 100	–	> 100	–
COC(=O)[C@]1(Cc2ccc3ccccc3c2)CCCCCCN1C(=O)c1ccccc1	> 51.5	> 51.3	> 54	> 44.1	25.9	26	–
FC(F)(F)C1(c2ccccc2)SCc2nc3ccccc3n21 (stereo unspecified)	> 100	> 100	> 100	> 100	> 100	> 100	–
COC(=O)C1SC[C@H]2C(=O)N(c3ccccc3)C(=O)N12 (stereo partly specified)	> 100	> 100	> 100	> 100	> 100	> 100	–
Cc1ccc(NC(=S)N=Nc2c(O)[nH]c3ccccc23)cc1	> 100	> 100	> 100	> 100	> 100	> 100	–
CCN(CCCl)c1cc(CN(C)C)cc(NC(=O)c2ccc(C(=O)Nc3ccccc3)cc2)c1	5.21	4.03	13.6	11.5	0.519	1.87	–
CCOc1cc(/C=C2\N=C(c3ccccc3)N(c3nc4ccccc4s3)C2=O)ccc1O	–	–	> 100	> 100	62.1	> 100	–
N#Cc1c2ccc([N+](=O)[O-])cc2c(=O)n2c1sc1ccccc12	> 100	> 100	> 100	38.8	53.6	98.8	–
CCOC(=O)/C=C(/C(=O)OCC)n1ccc(=O)n(CC(=O)OCC)c1=O	4.61	3.24	10.9	2.57	12.1	–	2
CN(C)c1c(C2CC(O)C(CO)O2)c(=O)c1=O (stereo unspecified)	> 100	> 100	> 100	> 100	> 100	> 100	–
CC(C)C1=CC23CCC4C(C)(C(=O)O)CCCC4(C)C2CC1C1C(=O)N(c2cccc(N4C(=O)C5C6CC7C8(C)CCCC(C)(C(=O)O)C8CCC7(C=C6C(C)C)C5C4=O)c2)C(=O)C13 (stereo unspecified)	27.1	80.1	27.8	21.3	29.9	> 100	–
C=C(C)C1CC2=C(O1)C(=O)c1cccc(O)c1C2=O (stereo unspecified)	2.44	2.18	1.47	–	2.68	0.926	–
NC(Cc1ccc(O)cn1)C(=O)O (stereo unspecified)	> 100	–	> 100	> 100	–	> 100	–
COc1cc(OC2OC(CO)C(O)C(O)C2O)c2c(c1)O[C@@H]1[C@H](O)Oc3cc(OC)c(OC)cc3[C@]1(O)C2=O (stereo partly specified)	> 25	> 25	> 25	> 25	> 25	> 25	–
COc1cc(C(=O)N(C(=S)OC23CC4CC(CC(C4)C2)C3)c2ccccc2)cc(OC)c1OC	> 100	> 100	> 100	46.4	32.1	> 100	–
O=C(NNC(=O)c1c(Cl)c(Cl)c(Cl)c(Cl)c1-c1nc2ccccc2[nH]1)c1ccc(Cl)cc1	> 100	> 100	> 100	> 100	> 100	> 100	–
C[C@H]1[C@H](C)CC[C@]2(C(=O)OC3OC(CO)C(O)C(O)C3O)CC[C@]3(C)C(=CC[C@@H]4[C@@]5(C)C[C@@H](O)[C@@H]6OC(=O)c7cc(O)c(O)c(O)c7-c7c(cc(O)c(O)c7O)C(=O)OC[C@]6(CO)[C@@H]5CC[C@]43C)[C@H]12 (stereo partly specified)	> 100	> 100	> 100	> 100	> 100	40.1	–
Brc1ccc(C2CC3(c4ccccc4)ON=C(c4ccccc4)N3c3ccccc3S2)cc1 (stereo unspecified)	> 100	> 100	> 100	> 100	> 100	> 100	–
NS(=O)(=O)c1nnc(NC(=O)/C=C/C(=O)O)s1	> 100	> 100	> 100	> 100	> 100	> 100	–
